These results are taken from PMC6027433, “Synthesis, Evaluation of Cytotoxicity and Molecular Docking Studies of the 7-Acetamido Substituted 2-Aryl-5-bromo-3-trifluoroacetylindoles as Potential Inhibitors of Tubulin Polymerization” (Pharmaceuticals, 2018).

Series [1] concerns A549 cancer cells. The series is described as follows: Two-concentration cytotoxicity screen (Hoechst 33342/PI imaging), A549. The series is classed as cell-based. To be noted: 10 μM and 100 μM, 48 h. As to the method:
(§1) The HeLa and A549 cancer cells were initially exposed to two concentrations of each test compound (10 μM and 100 μM) for 48 h with a well-known chemotherapeutic drug, Melphalan, used as a reference standard at the same concentrations (Table 2 and Table 3). Acquisition was performed using the ImageXpress Micro XLS Widefield Microscope and the acquired images were analyzed using the MetaXpress software and Multi-Wavelength Cell Scoring Application Module (see Figure S2 in the Supplementary Information for cell viability percentages for each compound). The structure activity relationship (SAR) of these compounds has been evaluated with respect to the substitution patterns on the 2-phenyl ring, C-3 and C-7 positions.
(§2) The human cervical cancer cell line, HeLa, and lung cancer cell line, A549 were used for the screening assay. HeLa cells were grown and maintained in RPMI 1640 medium supplemented with 10% fetal bovine serum (FBS) and A549 cells were grown and maintained in EMEM supplemented with 10% FBS and 10% non-essential amino acids. In the case of screening experiments, the cells were seeded into 96 well microtiter plates at a density of 6000 cells/well to a total volume of 200 μL per well. The microtiter plates were incubated at 37 °C, 5% CO2, and 100% relative humidity for 24 h to allow for cell attachment. Each of the test compounds was first reconstituted in DMSO at a concentration of 40 mM and then stored at 4 °C prior to use and final dilution to working concentrations with culture complete medium on the day of treatment. Two hundred microliters aliquots of the diluted compound in fresh medium was used to treat cells after aspiration of seeding medium. Each of the cell lines was incubated for 48 h at 37 °C in a humidified incubator under 5% CO2 atmosphere. Treatment medium was aspirated from all wells and replaced with 100 μL of Hoechst 33342 nuclear dye (5 μg/mL) and incubated for 10 min at room temperature. Thereafter, cells were stained with propidium iodide (PI) at 100 μg/mL in order to enumerate the proportion of dead cells within the population. […]
(§3) Quantification of live and dead cells for the screening assay was performed using the ImageXpress Micro XLS Widefield Microscope and acquired images analysed using the MetaXpress software and Multi-Wavelength Cell Scoring Application Module. Acquired data was transferred to an EXCEL spreadsheet and relative cell viability was determined using quadruplicate wells for each concentration. […] Cell viabilities in other test wells were calculated relative to the untreated control and expressed as a percentage. Dose response analysis was performed using the statistical software GraphPad Prism and IC50 values calculated from the concentration-response data using a mathematical Hill function.

In series [2] the test system is cervical cancer (HeLa) cells. Nature of the series: MTT dose response cytotoxicity, HeLa. The series is classed as cell-based. To be noted: Homo sapiens, 48 h. The protocol: (§4) Cells were seeded as described in above. […] The medium was aspirated and replaced with 200 μL fresh medium containing the dilution of the respective test compound. The test sample were added to each well and the plates were incubated for a further 48 h at 37 °C under 5% CO2 atmosphere in a humidified incubator. After this incubation period, the medium was removed and then replaced with 100 μL fresh culture medium containing MTT at a final concentration of 0.5 mg/mL. The 96-well plates were returned to the incubator and incubated for an additional 3 h. The medium was removed and the MTT crystals were solubilized in 100 μL DMSO and the absorbance was measured at 560 nm using a Labsystems Multiwell Scanning spectrophotometer (Thermo Fischer Scientific, Edenvale, South Africa).
(§5) Quantification of live and dead cells for the screening assay was performed using the ImageXpress Micro XLS Widefield Microscope and acquired images analysed using the MetaXpress software and Multi-Wavelength Cell Scoring Application Module. Acquired data was transferred to an EXCEL spreadsheet and relative cell viability was determined using quadruplicate wells for each concentration. Untreated cells were considered to have 100% cell viability (i.e., the mean OD of the untreated wells = 100% viability). Cell viabilities in other test wells were calculated relative to the untreated control and expressed as a percentage. Dose response analysis was performed using the statistical software GraphPad Prism and IC50 values calculated from the concentration-response data using a mathematical Hill function.

Series [3] deals with HeLa cancer cells. Nature of the series: Two-concentration cytotoxicity screen (Hoechst 33342/PI imaging), HeLa. The series is classed as cell-based. To be noted: 10 μM and 100 μM, 48 h. As to the method: as §1, §2, §3
The test system of series [4] is lung cancer (A549) cells. Nature of the series: MTT dose response cytotoxicity, A549. The series is classed as cell-based. Particulars: Homo sapiens, 48 h. The protocol: as §4, §5
The subject of series [5] is HeLa cells. Nature of the series: Caspase 8 and 3 activation (immunochemical), HeLa. The series is classed as cell-based, human. Particulars: 24 h exposure at IC50 values. As to the method: (§6) Several distinctive mechanisms of cancer cell death such as apoptosis, necrosis, autophagy and cornification have been identified, and these are characterized by differences in morphology and biochemical changes. A major biochemical feature of apoptosis is the activation of caspases, which plays a central role in the morphological changes associated with apoptosis. Caspase activation was determined using immunochemical methods and the antibodies against activated caspase 8 and caspase 3. […] Activated caspase 8 can be used as a convenient indicator of involvement of the extrinsic death receptor pathway of apoptosis. Executioner caspases including caspase 3 are, in turn, activated by the initiator caspases. This protein is either partially or totally responsible for the cleavage of many key proteins such as PARP, DNA protein kinases and retinoblastoma protein [25]. […] This was true for both activated caspase 8 and 3. A more distinct increase was evident with caspase 3 albeit less pronounced than that of 4c and the increase was expected as caspase 3 is activated by initiator caspase including caspase 8, which is a later event in apoptosis. […] Prolonged treatment of the cells with compounds 5e–h for 48 h or more, for example, would probably result in significant effects. We also evaluated compound 5g for potential to induce other key apoptotic biochemical features such as phosphatidylserine (PS) translocation, cell cycle arrest and mitochondrial membrane depolarization.
(§7) Compounds 4c and 5g were selected for mechanism studies and these test compounds were reconstituted in dimethyl sulphoxide (DMSO) to give a final concentration of 40 mM. Samples were stored at 4 °C until required. […]
(§8) Quantification of live and dead cells for the assay was performed using the ImageXpress Micro XLS Widefield Microscope and acquired images analysed using the MetaXpress software and Multi-Wavelength Cell Scoring Application Module and the Cell Cycle Module. Acquired data was transferred to an EXCEL spreadsheet and data was analysed and processed.

Series [6] has as its system A549 cells. Nature of the series: Caspase 8 and 3 activation (immunochemical), A549. The series is classed as cell-based, human. To be noted: 24 h exposure at IC50 values. As to the method:
as §6, §7, §8

Some results are limits rather than exact numbers.

Consider `CC(=O)Nc1cc(Br)cc2cc(-c3ccccc3)[nH]c12` [Compound 4a, N-(5-Bromo-2-phenyl-1H-indol-7-yl)acetamide], for which the “Cytotoxicity (percentage live cells compared to untreated control)” value in series [1] and in series [3] was “Lack of cytotoxicity” throughout. The IC50 in series [2] and in series [4] was greater than 200 µM throughout.
As to `CC(=O)Nc1cc(Br)cc2c(C(=O)C(F)(F)F)c(-c3ccc(F)cc3)[nH]c12` [Compound 5f, N-[5-Bromo-2-(4-fluorophenyl)-3-trifluoroacetyl-1H-indol-7-yl]acetamide], the melting point – broadly, the temperature, or range, at which the solid turns liquid – fell in the range of 195 to 197 °C. In series [2], the IC50 (as a rule, the concentration needed to halve the response being measured) is 7.95 ± 0.9 µM. The IC50 in series [4] worked out at 5.03 ± 0.71 µM.
For `CC(=O)c1cc(Br)cc2c(C(=O)C(F)(F)F)c(-c3ccc(F)cc3)[nH]c12` [Compound 5b, 1-[7-Acetyl-5-bromo-2-(4-fluorophenyl)-1H-indol-3-yl]-2,2,2-trifluoroethanone] the same measures were 168 to 171 °C, greater than 200 µM and greater than 200 µM.
The like results for `CC(=O)c1cc(Br)cc2cc(-c3ccccc3)[nH]c12` [Compound 2a, 1-(5-Bromo-2-phenyl-1H-indol-7-yl)ethanone] were, in that order, 139 to 142 °C, greater than 200 µM and greater than 200 µM.
For the compound `CC(=O)c1cc(Br)cc2cc(-c3ccc(F)cc3)[nH]c12` [Compound 2b, 1-[5-Bromo-2-(4-fluorophenyl)-1H-indol-7-yl]ethanone], the melting point is 171 to 173 °C. Moreover, the IC50 in series [2] is greater than 200 µM. In series [4], this compound gave an IC50 greater than 200 µM.
`CC(=O)c1cc(Br)cc2c(C(=O)C(F)(F)F)c(-c3cccc(Cl)c3)[nH]c12` [Compound 5c, 1-[7-Acetyl-5-bromo-2-(3-chlorophenyl)-1H-indol-3-yl]-2,2,2-trifluoroethanone] registered a melting point of 138 to 141 °C. Besides, the IC50 in series [2] is greater than 200 µM. The compound further gave an IC50 in series [4] greater than 200 µM.
Regarding `CC(=O)c1cc(Br)cc2c(C(=O)C(F)(F)F)c(-c3ccccc3)[nH]c12` [Compound 5a, 1-(7-Acetyl-5-bromo-2-phenyl-1H-indol-3-yl)-2,2,2-trifluoroethanone], the melting point fell in the range of 175 to 176 °C. Besides, the IC50 in series [2] is greater than 200 µM. The compound further returned an IC50 in series [4] greater than 200 µM.
Consider `CC(=O)Nc1cc(Br)cc2cc(-c3ccc(F)cc3)[nH]c12` [Compound 4b, N-[5-Bromo-2-(4-fluorophenyl)-1H-indol-7-yl]acetamide], for which the “Cytotoxicity (percentage live cells compared to untreated control)” value in series [1] and in series [3] was “modest cytotoxicity” in each case. The IC50 in series [2] was found to be 122.4 ± 1.02 µM; in series [4], 116.2 ± 0.78 µM.
On to `CC(=O)c1cc(Br)cc2cc(-c3cccc(Cl)c3)[nH]c12` [Compound 2c, 1-[5-Bromo-2-(3-chlorophenyl)-1H-indol-7-yl]ethanone], for which the melting point was in the range of 140 to 143 °C. This compound also returned an IC50 in series [2] greater than 200 µM. The compound also showed an IC50 in series [4] greater than 200 µM.
Regarding `N[C@@H](Cc1ccc(N(CCCl)CCCl)cc1)C(=O)O` [Melphalan, reference compound], the “Caspase 8 and 3 activation (% change in mean integrated fluorescence intensity of the untreated control)” value in series [5] and in series [6] was “clear increases” throughout. Besides, the IC50 in series [2] came out at 37.16 ± 0.22 µM; in series [4] it was 30.7 ± 0.76 µM.
With `COc1ccc(-c2[nH]c3c(C(C)=O)cc(Br)cc3c2C(=O)C(F)(F)F)cc1` [Compound 5d, 1-[7-Acetyl-5-bromo-2-(4-methoxyphenyl)-1H-indol-3-yl]-2,2,2-trifluoroethanone], the melting point lay within 170 to 173 °C. The compound also came in with an IC50 in series [2] greater than 200 µM. The half-maximal inhibitory concentration (IC50) in series [4] was greater than 200 µM.
With `CC(=O)Nc1cc(Br)cc2cc(-c3cccc(Cl)c3)[nH]c12` [Compound 4c, N-(5-Bromo-2-(3-chlorophenyl)-1H-indol-7-yl)acetamide], the “Caspase 8 and 3 activation (% change in mean integrated fluorescence intensity of the untreated control)” value in series [5] and in series [6] was “clear increases” each time. Besides, the “Cytotoxicity (percentage live cells compared to untreated control)” value in series [1] and in series [3] was “modest cytotoxicity” in each case. The IC50 is 126.9 ± 1 µM in series [2] and 154.6 ± 0.9 µM in series [4].
For the compound `CC(=O)Nc1cc(Br)cc2c(C(=O)C(F)(F)F)c(-c3ccccc3)[nH]c12` [Compound 5e, N-[5-Bromo-2-phenyl-3-trifluoroacetyl-1H-indol-7-yl]acetamide], the melting point fell in the range of 141 to 144 °C. This compound gave an IC50 in series [2] of 12.9 ± 1.11 µM. The compound also returned an IC50 in series [4] of 9.94 ± 0.99 µM.
For the compound `COc1ccc(-c2cc3cc(Br)cc(NC(C)=O)c3[nH]2)cc1` [Compound 4d, N-[5-Bromo-2-(4-methoxyphenyl)-1H-indol-7-yl]acetamide], the “Cytotoxicity (percentage live cells compared to untreated control)” value in series [1] and in series [3] was “modest cytotoxicity” throughout. For the same compound, the IC50 in series [2] worked out at 125 ± 0.88 µM; in series [4], 146.8 ± 1 µM.
Take `COc1ccc(-c2cc3cc(Br)cc(C(C)=O)c3[nH]2)cc1` [Compound 2d, 1-[5-Bromo-2-(4-methoxyphenyl)-1H-indol-7-yl]ethanone]: the melting point lay within 140 to 142 °C. This compound also came in with an IC50 in series [2] greater than 200 µM. Also, the half-maximal inhibitory concentration (IC50) in series [4] was greater than 200 µM.
On to `COc1ccc(-c2[nH]c3c(NC(C)=O)cc(Br)cc3c2C(=O)C(F)(F)F)cc1` [Compound 5h, N-[5-Bromo-2-(4-methoxyphenyl)-3-trifluoroacetyl-1H-indol-7-yl]acetamide], for which the melting point was in the range of 179 to 182 °C. The IC50 in series [2] amounted to 10.7 ± 1.03 µM. Moreover, in series [4], 3.26 ± 0.51 µM corresponded to half-maximal inhibition (IC50).
